Assay results taken from patent US20230150944A1, “PESTICIDALLY ACTIVE HETEROCYCLIC DERIVATIVES WITH SULFOXIMINE CONTAINING SUBSTITUENTS” (SYNGENTA CROP PROTECTION AG, priority 2018, published 2023).

Assays:
Type in all cases: in vivo
[1] = tested on: Spodoptera littoralis (Egyptian Cotton Leaf Worm); test: Example B7: Activity on Spodoptera littoralis, cotton leaf disc spray; settings: foliar, 72 h, application rate of 200 ppm, L1 larvae on cotton leaf discs, 3 days after infestation, read-out: control (mortality, anti-feeding effect or growth inhibition)
Description: Example B7: Activity on Spodoptera littoralis (Egyptian Cotton Leaf Worm)
Cotton leaf discs were placed onto agar in 24-well microtiter plates and sprayed with aqueous test solutions prepared from 10′000 ppm DMSO stock solutions. After drying the leaf discs were infested with five L1 larvae. The samples were assessed for mortality, anti-feeding effect, and growth inhibition in comparison to untreated samples 3 days after infestation. Control of Spodoptera littoralis by a test sample is given when at least one of the categories mortality, anti-feedant effect, and growth inhibition is higher than the untreated sample.

[2] = tested on: Myzus persicae (Green Peach Aphid); test: Example B4: Activity on Myzus persicae, sunflower leaf disc spray; settings: foliar, 144 h, application rate of 200 ppm, mixed-age aphids on sprayed sunflower leaf discs, 6 days after infestation
Description: Example B4: Activity on Myzus persicae (Green Peach Aphid)
Sunflower leaf discs were placed onto agar in a 24-well microtiter plate and sprayed with aqueous test solutions prepared from 10′000 ppm DMSO stock solutions. After drying, the leaf discs were infested with an aphid population of mixed ages. The samples were assessed for mortality 6 days after infestation.

[3] = tested on: Plutella xylostella (Diamond Back Moth); test: Example B11: Activity on Plutella xylostella, artificial diet, eggs; settings: 192 h, application rate of 200 ppm, 8 days after infestation, read-out: effect in at least one of the two categories (mortality or growth inhibition)
Description: Example B11: Activity on Plutella xylostella (Diamond Back Moth)
24-well microtiter plates with artificial diet were treated with aqueous test solutions prepared from 10′000 ppm DMSO stock solutions by pipetting. After drying, Plutella eggs were pipetted through a plastic stencil onto a gel blotting paper and the plate was closed with it. The samples were assessed for mortality and growth inhibition in comparison to untreated samples 8 days after infestation.

[4] = tested on: Diabrotica balteata (Corn Root Worm); test: Example B2: Activity on Diabrotica balteata, maize sprout spray; settings: 96 h, application rate of 200 ppm, L2 larvae on maize sprouts, 4 days after infestation, read-out: effect in at least one of the two categories (mortality or growth inhibition)
Description: Example B2: Activity on Diabrotica balteata (Corn Root Worm)
Maize sprouts placed onto an agar layer in 24-well microtiter plates were treated with aqueous test solutions prepared from 10′000 ppm DMSO stock solutions by spraying. After drying, the plates were infested with L2 larvae (6 to 10 per well). The samples were assessed for mortality and growth inhibition in comparison to untreated samples 4 days after infestation.

[5] = tested on: Myzus persicae (Green Peach Aphid); test: Example B5: Activity on Myzus persicae, pea seedling roots in test solution; settings: 144 h, test rate of 24 ppm, roots of infested pea seedlings placed into test solution, 6 days
Description: Example B5: Activity on Myzus persicae (Green Peach Aphid)
Roots of pea seedlings infested with an aphid population of mixed ages were placed directly into aqueous test solutions prepared from 10′000 DMSO stock solutions. The samples were assessed for mortality 6 days after placing seedlings into test solutions.

[6] = tested on: Euschistus heros (Neotropical Brown Stink Bug); test: Example B3: Activity on Euschistus heros, soybean leaf spray; settings: 120 h, application rate of 200 ppm, N2 nymphs on soybean leaves, 5 days after infestation, read-out: effect in at least one of the two categories (mortality or growth inhibition)
Description: Example B3: Activity on Euschistus heros (Neotropical Brown Stink Bug)
Soybean leaves on agar in 24-well microtiter plates were sprayed with aqueous test solutions prepared from 10′000 ppm DMSO stock solutions. After drying the leaves were infested with N2 nymphs. The samples were assessed for mortality and growth inhibition in comparison to untreated samples 5 days after infestation.

[7] = tested on: Plutella xylostella (Diamond Back Moth); test: Example B6: Activity on Plutella xylostella, artificial diet, L2 larvae; settings: 120 h, application rate of 200 ppm, 5 days after infestation, read-out: effect in at least one of the two categories (mortality or growth inhibition)
Description: Example B6: Activity on Plutella xylostella (Diamond Back Moth)
24-well microtiter plates with artificial diet were treated with aqueous test solutions prepared from 10′000 ppm DMSO stock solutions by pipetting. After drying, the plates were infested with L2 larvae (10 to 15 per well). The samples were assessed for mortality and growth inhibition in comparison to untreated samples 5 days after infestation.

[8] = tested on: Bemisia tabaci (Cotton White Fly); test: Example B1: Activity on Bemisia tabaci, cotton leaf disc spray; settings: foliar, 144 h, application rate of 200 ppm, adult white flies on cotton leaf discs, 6 days after incubation
Description: Example B1: Activity on Bemisia tabaci (Cotton White Fly)
Cotton leaf discs were placed on agar in 24-well microtiter plates and sprayed with aqueous test solutions prepared from 10′000 ppm DMSO stock solutions. After drying the leaf discs were infested with adult white flies. The samples were checked for mortality 6 days after incubation.

[9] = tested on: Tetranychus urticae (Two-Spotted Spider Mite); test: Example B10: Activity on Tetranychus urticae, bean leaf disc spray; settings: foliar, 192 h
Description: Example B10: Activity on Tetranychus urticae (Two-Spotted Spider Mite)
Bean leaf discs on agar in 24-well microtiter plates were sprayed with aqueous test solutions prepared from 10′000 ppm DMSO stock solutions. After drying the leaf discs were infested with a mite population of mixed ages. The samples were assessed for mortality on mixed population (mobile stages) 8 days after infestation.

CCS(=N)(=O)c1cc(C2CC2)cnc1-c1cn2ncc(C(F)(F)F)cc2n1 (stereo not shown) [Example P16, [5-cyclopropyl-2-[7-(trifluoromethyl)imidazo[1,2-b]pyridazin-2-yl]-3-pyridyl]-ethyl-imino-oxo-λ^6-sulfane]
≥ 80%: percent control (mortality, anti-feedant effect or growth inhibition) at 200 ppm [1] | mortality at 200 ppm [2] | percent effect (mortality or growth inhibition) at 200 ppm [3] | percent effect (mortality or growth inhibition) at 200 ppm [4] | mortality at 24 ppm [5]

CCS(=N)(=O)c1cc(C2CC2)cnc1-c1nc2cc(S(=O)(=O)C(F)(F)F)ncc2n1C (stereo not shown) [Example P3, [5-cyclopropyl-2-[3-methyl-6-(trifluoromethylsulfonyl)imidazo[4,5-c]pyridin-2-yl]-3-pyridyl]-ethyl-imino-oxo-λ^6-sulfane]
≥ 80%: percent effect (mortality or growth inhibition) at 200 ppm [6] | percent control (mortality, anti-feedant effect or growth inhibition) at 200 ppm [1] | percent effect (mortality or growth inhibition) at 200 ppm [7] | mortality at 200 ppm [2] | mortality at 200 ppm [8] | mortality at 200 ppm [9] | percent effect (mortality or growth inhibition) at 200 ppm [4] | mortality at 24 ppm [5]
